Laboratory results taken from BigSolDB 2.1.

CC[C@H]1OC(=O)[C@H](C)[C@@H](O[C@H]2C[C@@](C)(OC)[C@@H](O)[C@H](C)O2)[C@H](C)[C@@H](O[C@@H]2O[C@H](C)C[C@H](N(C)C)[C@H]2O)[C@](C)(O)C[C@@H](C)C(=O)[C@H](C)[C@@H](O)[C@]1(C)O.O.O
solubility (mole fraction)
Conditions	293.2 K	298 K	303.15 K	308 K	313.1 K	318 K	323 K
in acetone	0.00914	0.0131	0.0217	0.0293	0.0433	0.0542	0.0804
in chloroform	0.00391	0.0054	0.00875	0.0134	0.0216	0.0313	0.0473
in ethanol	0.0148	0.0192	0.0254	0.0338	0.046	0.062	0.081
in isopropanol	0.003	0.00401	0.00556	0.00754	0.00995	0.0143	0.0194
in methanol	0.0116	0.0143	0.0179	0.0215	0.0253	0.0305	0.0373
in water	5.4e-05	4.7e-05	4.2e-05	4e-05	3.8e-05	3.5e-05	3.4e-05
